Measurements: article PMC6400584, “Activation mechanism of ATP-sensitive K^+ channels explored with real-time nucleotide binding” (eLife, 2019)

Experiments:
[1] = target: T1, SUR1/Kir6.2-G334D (Homo sapiens, UniProt Q09428); experiment: Current activation in inside-out patches; format: biochemical
T1 construct: expressed in transfected cells; host or cells: HEK-293T
Experimental: (§1) Currents were recorded from inside-out membrane patches excised from transfected HEK-293T cells. Pipettes were pulled to a resistance of 1–5 MΩ and filled with an extracellular solution containing (in mM) 140 KCl, 1.2 MgCl2, 2.6 CaCl2, and 10 HEPES, pH 7.4 or 140 KCl, 1 EGTA, 10 HEPES, pH 7.3. The intracellular (bath) solutions contained either (in mM) 107 KCl, 2 MgCl2, 1 CaCl2, 10 EGTA, and 10 HEPES, pH 7.2 for experiments showing nucleotide-dependent activation or 140 KCl, 1 EDTA, 1 EGTA, 10 HEPES pH 7.3 for experiments showing nucleotide-dependent inhibition. Nucleotides were added as indicated. Patches were perfused with an 8-channel µFlow perfusion system. Data were acquired at a holding potential of −60 mV using an Axopatch 200B amplifier and Digidata 1322A digitizer with pClamp 9.0 software (Molecular Devices). Currents were digitized at 10 kHz and low-pass filtered at 1 kHz. KATP channels run down in excised patches (reviewed by Proks et al.) ([Proks et al., 2016]). For inhibitory concentration-response relationships, rundown was corrected by alternating test nucleotide solutions with nucleotide-free (control) solutions and expressing the test currents as a fraction of the average of the control currents before and after the test solution. […]

[2] = test system: T2, SUR1-T1397*/Kir6.2-G334D; experiment: Current activation in inside-out patches; format: biochemical, Homo sapiens
T2 construct: confirmed that >95% of SUR1-T1397* was full length; expressed in transfected cells; host or cells: HEK-293T
Experimental: as §1

[3] = target: T3, 3xFLAG_SUR1/Kir6.2 (Homo sapiens, UniProt Q09428+Q14654, INS1042[…]); experiment: Current response to 100 μM nucleotide relative to nucleotide-free solution, inside-out patches; format: biochemical
T3 construct: expressed in transfected cells; host or cells: HEK-293T
Experimental: as §1

[4] = target: T4, SUR1-Y1353^stop/Kir6.2 (Homo sapiens, UniProt Q09428+Q14654); experiment: as above; format: biochemical; settings: truncated SUR1-Y1353^stop
T4 construct: expressed in transfected cells; host or cells: HEK-293T
T4 sequence (Q09428 1-1352): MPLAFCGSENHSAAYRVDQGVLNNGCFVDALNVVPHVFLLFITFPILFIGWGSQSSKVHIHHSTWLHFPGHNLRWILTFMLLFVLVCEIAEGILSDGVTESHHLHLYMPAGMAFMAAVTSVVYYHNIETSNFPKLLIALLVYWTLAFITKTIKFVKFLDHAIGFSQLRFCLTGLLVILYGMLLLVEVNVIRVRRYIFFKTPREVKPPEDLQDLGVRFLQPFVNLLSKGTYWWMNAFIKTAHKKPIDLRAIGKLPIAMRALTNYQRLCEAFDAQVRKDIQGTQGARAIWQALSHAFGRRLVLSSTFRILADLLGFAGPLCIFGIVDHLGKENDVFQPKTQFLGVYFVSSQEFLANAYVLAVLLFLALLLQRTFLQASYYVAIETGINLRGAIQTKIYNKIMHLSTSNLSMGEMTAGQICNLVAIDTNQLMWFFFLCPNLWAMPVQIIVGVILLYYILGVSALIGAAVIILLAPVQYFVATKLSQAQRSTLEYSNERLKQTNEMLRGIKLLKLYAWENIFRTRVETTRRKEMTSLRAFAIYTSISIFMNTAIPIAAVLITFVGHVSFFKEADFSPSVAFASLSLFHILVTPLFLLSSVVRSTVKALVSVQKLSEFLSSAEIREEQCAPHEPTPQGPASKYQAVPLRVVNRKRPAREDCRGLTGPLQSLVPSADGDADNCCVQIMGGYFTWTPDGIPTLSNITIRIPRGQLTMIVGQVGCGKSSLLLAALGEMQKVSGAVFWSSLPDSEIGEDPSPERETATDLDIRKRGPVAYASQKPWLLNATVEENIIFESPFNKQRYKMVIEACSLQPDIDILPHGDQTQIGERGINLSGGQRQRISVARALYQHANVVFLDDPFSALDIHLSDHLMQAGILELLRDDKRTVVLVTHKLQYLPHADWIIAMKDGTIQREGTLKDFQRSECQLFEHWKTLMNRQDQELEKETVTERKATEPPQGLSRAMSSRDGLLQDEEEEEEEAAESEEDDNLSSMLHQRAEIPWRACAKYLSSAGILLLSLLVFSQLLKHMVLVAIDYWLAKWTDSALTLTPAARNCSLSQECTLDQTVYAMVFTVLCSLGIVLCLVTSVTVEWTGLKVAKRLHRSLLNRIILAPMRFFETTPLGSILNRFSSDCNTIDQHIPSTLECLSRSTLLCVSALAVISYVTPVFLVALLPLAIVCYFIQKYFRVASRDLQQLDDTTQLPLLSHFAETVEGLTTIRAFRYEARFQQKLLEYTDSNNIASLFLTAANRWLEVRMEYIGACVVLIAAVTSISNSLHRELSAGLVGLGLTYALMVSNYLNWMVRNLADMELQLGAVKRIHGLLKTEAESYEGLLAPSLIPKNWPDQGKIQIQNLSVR
T4 sequence (Q14654 1-390): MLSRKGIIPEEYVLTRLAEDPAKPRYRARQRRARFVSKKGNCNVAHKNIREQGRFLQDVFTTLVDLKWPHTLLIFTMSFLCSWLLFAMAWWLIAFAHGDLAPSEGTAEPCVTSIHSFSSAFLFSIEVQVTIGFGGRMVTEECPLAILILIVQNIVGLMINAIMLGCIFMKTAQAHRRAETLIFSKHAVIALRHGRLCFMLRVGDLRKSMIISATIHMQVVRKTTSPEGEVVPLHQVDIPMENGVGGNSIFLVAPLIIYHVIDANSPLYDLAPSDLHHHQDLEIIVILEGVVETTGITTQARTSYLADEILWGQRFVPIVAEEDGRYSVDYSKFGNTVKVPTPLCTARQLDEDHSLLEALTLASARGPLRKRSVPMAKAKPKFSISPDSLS
Experimental: as §1

[5] = test system: SUR1-Y1353*/Kir6.2-G334D; experiment: Currents in inside-out patches; format: biochemical, Homo sapiens; settings: co-expressed with pANAP and pERF1-E55D
Experimental: as §1

[6] = target: T1, SUR1/Kir6.2-G334D; set-up: method as in Proks et al., 2010; settings: ref Proks et al., 2010; read-out: EC50 for activation of currents; cited from earlier work

T1 sequence (Q09428 whole entry, stated change not applied): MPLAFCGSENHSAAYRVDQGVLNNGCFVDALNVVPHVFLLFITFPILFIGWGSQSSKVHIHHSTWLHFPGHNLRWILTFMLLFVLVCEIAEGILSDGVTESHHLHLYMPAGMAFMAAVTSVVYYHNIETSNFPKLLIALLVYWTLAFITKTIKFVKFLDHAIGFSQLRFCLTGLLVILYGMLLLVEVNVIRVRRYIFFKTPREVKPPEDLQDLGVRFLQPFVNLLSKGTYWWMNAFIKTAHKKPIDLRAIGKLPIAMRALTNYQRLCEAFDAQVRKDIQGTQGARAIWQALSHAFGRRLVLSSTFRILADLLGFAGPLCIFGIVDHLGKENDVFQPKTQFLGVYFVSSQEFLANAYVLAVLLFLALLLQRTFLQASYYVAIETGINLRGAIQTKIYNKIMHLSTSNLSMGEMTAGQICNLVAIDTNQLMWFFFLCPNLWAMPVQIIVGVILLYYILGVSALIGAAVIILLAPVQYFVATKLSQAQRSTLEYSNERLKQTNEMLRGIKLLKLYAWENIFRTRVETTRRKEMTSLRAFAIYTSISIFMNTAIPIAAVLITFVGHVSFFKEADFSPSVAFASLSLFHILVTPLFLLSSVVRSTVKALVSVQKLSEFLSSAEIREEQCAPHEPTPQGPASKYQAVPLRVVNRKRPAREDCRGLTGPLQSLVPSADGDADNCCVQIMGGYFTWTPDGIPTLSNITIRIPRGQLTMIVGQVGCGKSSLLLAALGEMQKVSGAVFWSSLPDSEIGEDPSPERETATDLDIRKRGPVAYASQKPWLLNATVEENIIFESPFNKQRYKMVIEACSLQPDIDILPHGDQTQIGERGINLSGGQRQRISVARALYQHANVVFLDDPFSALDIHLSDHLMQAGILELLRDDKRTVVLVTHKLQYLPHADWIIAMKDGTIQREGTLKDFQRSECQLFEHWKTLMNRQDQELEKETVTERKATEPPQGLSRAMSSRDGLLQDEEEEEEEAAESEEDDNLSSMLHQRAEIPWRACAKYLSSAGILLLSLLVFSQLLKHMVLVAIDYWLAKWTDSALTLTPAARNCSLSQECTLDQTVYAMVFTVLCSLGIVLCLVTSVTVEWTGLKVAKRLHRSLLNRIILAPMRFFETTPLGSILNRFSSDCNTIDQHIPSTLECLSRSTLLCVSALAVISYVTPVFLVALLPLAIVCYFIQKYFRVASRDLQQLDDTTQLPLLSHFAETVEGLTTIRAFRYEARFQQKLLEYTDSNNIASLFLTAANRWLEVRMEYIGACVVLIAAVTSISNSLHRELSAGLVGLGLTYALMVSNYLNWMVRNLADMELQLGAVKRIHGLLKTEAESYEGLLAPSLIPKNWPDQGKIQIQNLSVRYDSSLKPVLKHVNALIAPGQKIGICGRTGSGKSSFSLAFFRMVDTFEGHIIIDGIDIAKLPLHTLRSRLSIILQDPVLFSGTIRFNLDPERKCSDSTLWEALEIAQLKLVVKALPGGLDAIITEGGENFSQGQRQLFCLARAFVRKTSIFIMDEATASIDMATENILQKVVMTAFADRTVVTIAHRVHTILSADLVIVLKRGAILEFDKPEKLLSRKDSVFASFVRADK
T1 sequence (Q14654 whole entry G334D partner): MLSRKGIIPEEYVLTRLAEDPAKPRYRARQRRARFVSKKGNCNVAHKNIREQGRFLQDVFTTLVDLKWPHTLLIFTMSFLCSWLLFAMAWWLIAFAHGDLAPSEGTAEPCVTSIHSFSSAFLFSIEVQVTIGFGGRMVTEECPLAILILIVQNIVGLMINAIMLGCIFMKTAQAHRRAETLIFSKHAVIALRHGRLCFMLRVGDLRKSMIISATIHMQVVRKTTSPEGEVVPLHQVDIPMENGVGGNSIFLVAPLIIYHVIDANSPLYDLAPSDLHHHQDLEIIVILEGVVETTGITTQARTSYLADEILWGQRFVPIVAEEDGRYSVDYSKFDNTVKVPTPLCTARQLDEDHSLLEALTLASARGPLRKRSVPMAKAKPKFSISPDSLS
T3 sequence (Q09428 with tags, fused parts or gaps INS1042[withheld], one chain of several): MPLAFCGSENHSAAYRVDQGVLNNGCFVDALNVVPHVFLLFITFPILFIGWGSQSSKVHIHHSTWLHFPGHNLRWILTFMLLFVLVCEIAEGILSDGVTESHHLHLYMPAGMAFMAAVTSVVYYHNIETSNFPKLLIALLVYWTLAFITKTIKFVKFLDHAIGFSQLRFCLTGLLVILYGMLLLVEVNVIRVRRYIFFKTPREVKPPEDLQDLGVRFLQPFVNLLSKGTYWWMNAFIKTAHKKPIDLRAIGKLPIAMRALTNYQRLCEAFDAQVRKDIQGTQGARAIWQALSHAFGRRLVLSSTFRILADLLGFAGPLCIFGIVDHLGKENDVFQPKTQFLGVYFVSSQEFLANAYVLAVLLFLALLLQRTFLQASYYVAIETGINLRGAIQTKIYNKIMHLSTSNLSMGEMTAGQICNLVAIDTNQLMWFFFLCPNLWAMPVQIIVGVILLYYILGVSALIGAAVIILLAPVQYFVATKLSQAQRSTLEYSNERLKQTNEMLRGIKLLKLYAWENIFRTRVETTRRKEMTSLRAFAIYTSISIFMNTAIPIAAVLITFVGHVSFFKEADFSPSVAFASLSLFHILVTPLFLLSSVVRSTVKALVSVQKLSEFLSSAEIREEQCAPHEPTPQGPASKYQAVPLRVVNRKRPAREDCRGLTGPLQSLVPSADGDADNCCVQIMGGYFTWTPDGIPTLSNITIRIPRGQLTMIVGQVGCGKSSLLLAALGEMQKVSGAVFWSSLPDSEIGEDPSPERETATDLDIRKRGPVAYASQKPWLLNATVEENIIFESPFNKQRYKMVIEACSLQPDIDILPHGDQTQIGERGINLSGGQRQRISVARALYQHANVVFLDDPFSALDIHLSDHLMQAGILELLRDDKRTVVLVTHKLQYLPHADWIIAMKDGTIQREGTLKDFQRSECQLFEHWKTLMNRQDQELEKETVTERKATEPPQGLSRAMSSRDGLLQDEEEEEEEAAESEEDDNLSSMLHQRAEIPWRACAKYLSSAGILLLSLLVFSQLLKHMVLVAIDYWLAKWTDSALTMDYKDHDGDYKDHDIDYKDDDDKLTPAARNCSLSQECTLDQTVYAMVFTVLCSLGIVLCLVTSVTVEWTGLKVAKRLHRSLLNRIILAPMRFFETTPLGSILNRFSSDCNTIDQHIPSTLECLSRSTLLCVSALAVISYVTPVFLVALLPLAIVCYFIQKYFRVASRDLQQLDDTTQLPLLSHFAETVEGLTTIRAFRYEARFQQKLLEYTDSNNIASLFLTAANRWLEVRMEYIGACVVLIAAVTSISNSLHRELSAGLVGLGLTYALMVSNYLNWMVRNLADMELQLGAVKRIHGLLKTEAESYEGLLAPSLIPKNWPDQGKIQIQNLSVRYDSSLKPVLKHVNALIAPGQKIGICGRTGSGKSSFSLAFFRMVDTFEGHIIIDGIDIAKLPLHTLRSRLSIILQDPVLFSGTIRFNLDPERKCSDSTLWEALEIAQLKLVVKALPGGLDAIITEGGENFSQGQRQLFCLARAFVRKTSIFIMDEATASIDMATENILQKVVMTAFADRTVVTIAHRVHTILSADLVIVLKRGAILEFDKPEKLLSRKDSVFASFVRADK

For `Nc1ncnc2c1ncn2[C@@H]1O[C@H](COP(=O)([O-])OP(=O)([O-])O)[C@@H](O)[C@H]1O.[Mg+2]` [MgADP], the effect on currents [1] was “activated”, the EC50 ([2]; Equation 5 fit to combined data) was 38.6 µM and the EC50 ([2]; mean ± SEM of fits of equation 5 to individual experiments) was 44.4 ± 14.5 µM. For the same compound, the “increase of current over nucleotide-free control” value [3] was 3.6 fold, the inhibition of current [4] was 59% and the effect on currents [5] was “no activation”. For the same compound, the EC50 [6] was 7.7 µM.
